Results as given in ChEMBL document CHEMBL1121631, “Quantitative structure-activity relationships by distance geometry: systematic analysis of dihydrofolate reductase inhibitors” (J Med Chem, 1980).

system: Dihydrofolate reductase (Enterococcus faecium)

SMILES | Delta G
Nc1nc(O)c2cc([S+]([O-])c3ccc4ccccc4c3)ccc2n1 (stereo not drawn) | -8.2 kcal
Nc1nc(O)c2cc(S(=O)(=O)c3ccc4ccccc4c3)ccc2n1 | -9.6 kcal
Nc1nc(N)c2cc([S+]([O-])c3ccc4ccccc4c3)ccc2n1 (stereo not drawn) | -12.8 kcal
Nc1nc(S)c2cc(S(=O)(=O)c3ccc4ccccc4c3)ccc2n1 | -8 kcal
Nc1nc(O)nc2ccc(Sc3ccc4ccccc4c3)cc12 | -6.9 kcal
Nc1ncnc2ccc([S+]([O-])c3ccc4ccccc4c3)cc12 (stereo not drawn) | -7.2 kcal
O=c1[nH]c(=O)c2cc(Sc3ccc4ccccc4c3)ccc2[nH]1 | -6.9 kcal
Nc1nc(O)c2c(Sc3ccc4ccccc4c3)cccc2n1 | -7.4 kcal
Nc1nc(N)c2cc(Sc3cccc(C(F)(F)F)c3)ccc2n1 | -13.4 kcal
Nc1nc(N)c2cc(S(=O)(=O)c3ccc4ccccc4c3)ccc2n1 | -12.4 kcal
Nc1ncnc2ccc(S(=O)(=O)c3ccc4ccccc4c3)cc12 | -5.8 kcal
Nc1nc(O)c2cc(Sc3ccc(Cl)c(Cl)c3)ccc2n1 | -9.1 kcal
Sc1nc(S)c2cc(Sc3ccc4ccccc4c3)ccc2n1 | -6 kcal
Nc1nc(N)c2c([S+]([O-])c3ccc4ccccc4c3)cccc2n1 (stereo not drawn) | -6.9 kcal
Nc1nc(S)c2cc(Sc3ccc4ccccc4c3)ccc2n1 | -9.3 kcal
Oc1nc(S)nc2ccc(Sc3ccc4ccccc4c3)cc12 | -6.2 kcal
Nc1nc(N)c2c(Sc3ccc4ccccc4c3)cccc2n1 | -10.9 kcal
Nc1nc(O)c2c(S(=O)(=O)c3ccc4ccccc4c3)cccc2n1 | -9 kcal
Nc1ncnc2ccc(Sc3ccc4ccccc4c3)cc12 | -6.5 kcal
O=c1[nH]c(=S)c2cc(Sc3ccc4ccccc4c3)ccc2[nH]1 | -6.9 kcal
Nc1nc(O)c2cc(Sc3ccc4ccccc4c3)ccc2n1 | -10.2 kcal
Nc1nc(O)c2cc(S(=O)(=O)c3ccc(Cl)c(Cl)c3)ccc2n1 | -8.2 kcal
Nc1nc(S)nc2ccc(Sc3ccc4ccccc4c3)cc12 | -7.4 kcal

Further lines, results first:

Delta G | SMILES
-11.9 kcal | Nc1nc(N)c2c(CCc3ccc4ccccc4c3)cccc2n1
-12.2 kcal | Nc1nc(N)c2cc(Sc3ccc(Cl)c(Cl)c3)ccc2n1
-12.3 kcal | Nc1nc(N)c2c(Cl)c(CNc3ccc(C(=O)O)cc3)ccc2n1
-11 kcal | CCOC(=O)c1ccc(CNc2ccc3nc(N)nc(N)c3c2)cc1
-10.6 kcal | CCOC(=O)c1ccc(NCc2ccc3nc(N)nc(O)c3c2)cc1
-11.1 kcal | Nc1nc(N)c2c(/C=C\c3ccc4ccccc4c3)cccc2n1
-8.6 kcal | CCOC(=O)c1ccc(CNc2ccc3nc(N)nc(O)c3c2)cc1
-7.3 kcal | Nc1nc(N)c2c([S+]([O-])c3ccc(Cl)c(Cl)c3)cccc2n1 (stereo not drawn)
-12.8 kcal | CCOC(=O)c1ccc(NCc2ccc3nc(N)nc(N)c3c2Cl)cc1
-7.1 kcal | CCOC(=O)c1ccc(CNc2ccc3nc(N)nc(O)c3c2C)cc1
-6.5 kcal | Nc1nc(N)c2c(S(=O)(=O)c3ccc4ccccc4c3)cccc2n1
-10.7 kcal | Nc1nc(N)c2c(/C=C/c3ccc4ccccc4c3)cccc2n1
-11.4 kcal | CCOC(=O)c1ccc(NCc2ccc3nc(N)nc(N)c3c2)cc1
-12.3 kcal | CCOC(=O)c1ccc(NCc2ccc3nc(N)nc(N)c3c2C)cc1
-9.9 kcal | Nc1nc(N)c2c(Sc3ccc(Cl)c(Cl)c3)cccc2n1
-13 kcal | Nc1nc(N)c2cc(CNc3ccc(C(=O)O)cc3)ccc2n1
-12.2 kcal | CCOC(=O)c1ccc(CNc2ccc3nc(N)nc(N)c3c2Cl)cc1
-6.5 kcal | Cc1c(NCc2ccc(C(=O)O)cc2)ccc2nc(N)nc(O)c12
-11.4 kcal | CCCCOC(=O)c1ccc(NCc2ccc3nc(N)nc(N)c3c2Cl)cc1
-9 kcal | Nc1nc(N)c2c(S(=O)(=O)c3ccc(Cl)c(Cl)c3)cccc2n1
-13.1 kcal | CCOC(=O)c1ccc(CNc2ccc3nc(N)nc(N)c3c2C)cc1
-8.8 kcal | Nc1nc(O)c2cc(CNc3ccc(C(=O)O)cc3)ccc2n1
-10.9 kcal | Nc1nc(N)c2c(CSc3ccc(Cl)cc3)cccc2n1
-7.2 kcal | Nc1nc(O)c2cc(NCc3ccc(C(=O)O)cc3)ccc2n1
-12.1 kcal | CCCCOC(=O)c1ccc(NCc2ccc3nc(N)nc(N)c3c2C)cc1
-9.3 kcal | CCOC(=O)c1ccc(CNc2ccc3nc(N)nc(O)c3c2Cl)cc1
-11.8 kcal | Cc1c(CNc2ccc(C(=O)O)cc2)ccc2nc(N)nc(N)c12
-12.7 kcal | Cc1c(CNc2ccc(C(=O)NC(CC(=O)O)C(=O)O)cc2)ccc2nc(N)nc(N)c12 (stereo not drawn)
-13.4 kcal | Nc1nc(N)c2cc(S(=O)(=O)c3ccc(Cl)c(Cl)c3)ccc2n1
-11.2 kcal | CCCCOC(=O)c1ccc(NCc2ccc3nc(N)nc(N)c3c2)cc1
